According to patent US8119614B2, “Substitution derivatives of N6-benzyladenosine, methods of their preparation, their use for preparation of drugs, cosmetic preparations and growth regulators, pharmaceutical preparations, cosmetic preparations and growth regulators containing these compounds” (Ustav Experimentalni Botaniky Akademie Ved Ceske Republiky, priority 2002, dated 2012):

What was measured:
promyelocytic HL-60 = assay: In vitro cytotoxic activity, Calcein AM assay, HL60; type: cell-based, human; details: 72 hours, read-out: IC 50 HL60
Source text: (§1) One of the parameters used, as the basis for cytotoxicity assays, is the metabolic activity of viable cells. For example, a microtiter assay, which uses the Calcein AM, is now widely used to quantitate cell proliferation and cytotoxicity. For instance, this assay is used in drug screening programs and in chemosensitivity testing. Because only metabolically active cells cleave Calcein AM, these assays detect viable cells exclusively. The quantity of reduced Calcein AM corresponds to the number of vital cells in the culture.
(§2) Human T-lymphoblastic leukemia cell line CEM; promyelocytic HL-60 and monocytic U937 leukemias; breast carcinoma cell lines MCF-7; cervical carcinoma cells HELA; mouse fibroblasts NIH3T3; human erythroleukaemia K562 and human malignant melanoma cells G361 were used for routine screening of compounds. The cells were maintained in Nunc/Corning 80 cm^2 plastic tissue culture flasks and cultured in cell culture medium (DMEM with 5 g/l glucose, 2 mM glutamine, 100 U/ml penicillin, 100 μg/ml streptomycin, 10% fetal calf serum and sodium bicarbonate).
(§3) The cell suspensions that were prepared and diluted according to the particular cell type and the expected target cell density (10^4 cells per well based on cell growth characteristics) were added by pipette (80 μl) into 96/well microtiter plates. Inoculates were allowed a pre-incubation period of 24 hours at 37° C. and 5% CO2 for stabilisation. Four-fold dilutions of the intended test concentration were added at time zero in 20 μl aliquots to the microtiter plate wells. Usually, test compound was evaluated at six 4-fold dilutions. In routine testing, the highest well concentration was 166.7 μM, but it can be the matter of change dependent on the agent. All drug concentrations were examined in duplicates. Incubations of cells with the test compounds lasted for 72 hours at 37° C., in 5% CO2 atmosphere and 100% humidity. At the end of incubation period, the cells were assayed by using the Calcein AM. Ten microliters of the stock solution were pipetted into each well and incubated further for 1 hours. Fluorescence (FD) was measured with the Labsystem FIA Reader Fluoroscan Ascent (UK). The tumour cell survival (GI50) was calculated using the following equitation: GI50=(FDdrug exposed well/mean FDcontrol wells)×100%. The GI50 value, the drug concentration lethal to 50% of the tumour cells, was calculated from the obtained dose response curves (FIG. 3).

mouse fibroblasts NIH3T3 = assay: In vitro cytotoxic activity, Calcein AM assay, NIH-3T3; type: cell-based; details: 72 hours, read-out: IC 50 NIH-3T3
Source text: as §1, §2, §3

[1] = test system: Human T-lymphoblastic leukemia cell line CEM; assay: In vitro cytotoxic activity, Calcein AM assay, CEM; type: cell-based; details: 72 hours
Source text: as §1, §2, §3

[2] = test system: human erythroleukaemia K562; assay: In vitro cytotoxic activity, Calcein AM assay, K-562; type: cell-based; details: 72 hours, read-out: IC 50 K-562
Source text: as §1, §2, §3

[3] = test system: breast carcinoma cell lines MCF-7; assay: In vitro cytotoxic activity, Calcein AM assay, MCF7; type: cell-based, human; details: 72 hours, read-out: IC 50 MCF7
Source text: as §1, §2, §3

HOS = assay: In vitro cytotoxic activity, Calcein AM assay, HOS; type: cell-based; details: 72 hours
[4] = test system: human malignant melanoma cells G361; assay: In vitro cytotoxic activity, Calcein AM assay, G-361; type: cell-based; details: 72 hours, read-out: IC 50 G-361
Source text: as §1, §2, §3

[5] = test system: Triticum aestivum cv. Hereward; assay: Senescence inhibition on winter wheat leaf segments (chlorophyll retention); type: in vivo; details: for Concentration with highest activity: chlorophyll retention in excised wheat leaf tips, 96 h dark; for Activity (%) [10^−4 mol · l^−1 BAP = 100%]: chlorophyll retention, at concentration with highest activity
Method: Seeds of winter wheat, Triticum aestivum cv. Hereward, were washed under running water for 24 hours and then sown on vermiculite soaked with Knop's solution. They were placed in the grown chamber at 15° C. with a 16/8 h light period at 50 μmol·m^−2·s^−1. After 7 days, the first leaf was fully developed and the second leaf had started to grow. A tip section of the first leaf, approximately 35 mm long, was removed from 5 seedlings and trimmed slightly to a combined weight of 100 mg. The basal ends of the five leaf tips were placed in the wells of a microtiter polystyrene plate containing 150 μl of a cytokinin solution each. The entire plate was inserted into a plastic box lined with paper tissues soaked in distilled water to prevent leaf sections from drying out. After a 96 h incubation in the dark at 25° C., the leaves were removed and chlorophyll extracted by heating at 80° C. for 10 min in 5 ml of 80% ethanol (v/v). The sample volume was then restored to 5 ml by the addition of 80% ethanol (v/v). The absorbency of the extract was recorded at 665 nm. In addition, chlorophyll extracts from fresh leaves and leaf tips incubated in deionised water were measured. From the obtained data, the concentration with highest activity was selected for each compound tested. Relative activity of the compound at this concentration was calculated (Tab. 10). The activity obtained for 10^−4 M 6-benzylaminopurine (BAP) was postulated as 100%. The values shown are means of five replicates and the whole experiment was repeated twice. The cytokinins to be tested were dissolved in dimethylsulfoxide (DMSO) and the solution brought up to 10^−3M with distilled water. This stock was further diluted in distilled water to concentrations ranging from 10^−8M to 10^−4M.

[6] = test system: Amaranthus caudatus cotyledon/hypocotyl explants; assay: Amaranthus bioassay (betacyanin content); type: in vivo; details: for Concentration with highest activity: 48 h dark; for Activity (%) [10^−5 mol · l^−1 BAP = 100%]: at concentration with highest activity
Method: Standard Amaranthus bioassay was performed with several modifications. The seeds of Amaranthus caudatus var. atropurpurea were surface-sterilised in 10% N-chlorobenzenesulfonamide (w/v) for 10 min and washed 5 times in deionized water. They were placed in 15 cm Petri dishes containing paper tissues saturated with deionized water. After 72 h of cultivation at 25° C. in darkness, the roots of the seedlings were cut off. The explants, consisting of two cotyledons and hypocotyls, were placed in 5 cm Petri dishes on two layers of filter paper soaked in 1 ml of incubation medium containing 10 μmol NA2HPO4-KH2PO4, pH 6.8, 5 μmol tyrosine and the cytokinin to be tested. There were 20 explants per dish. The procedure was carried out under a green safe light in a darkroom. After a 48 h of incubation at 25° C. in darkness, betacyanin was extracted by freezing the explants in 4 ml […] acetic acid. The concentration of betacyanin was determined by comparing the absorbance at 537 nm and 620 nm as follows: ΔA=[…]-[…]. From the obtained data, the concentration with highest activity was selected for each compound tested. Relative activity of the compound at this concentration was calculated (Tab. 12). […] The values shown in table 8 are means of five replicates and the entire test was repeated twice. The cytokinins to be tested were dissolved in dimethylsulfoxide (DMSO) and the solution brought up to 10^-3M with distilled water. This stock was further diluted in the respective media used for the biotest to concentrations ranging from 10^-8M to 10^-4M. […] From the data obtained (FIG. 14) the maximum effective concentration of the tested compound was calculated as well as its relative effectiveness at this concentration (Table 12). […]

[7] = test system: tobacco callus Nicotiana tabacum L. cv. Wisconsin 38; assay: Growth of cytokinin-dependent tobacco callus; type: cell-based; details: for Activity (%) [10^−5 mol · l^−1 BAP = 100%]: callus growth, at concentration with highest activity; for Concentration with highest activity: fresh callus weight after four weeks
Method: Cytokinin-dependent tobacco callus Nicotiana tabacum L. cv. Wisconsin 38 was maintained at 25° C. in darkness on modified Murashige-Skoog medium, containing per 1 liter: 4 μmol nicotinic acid, 2.4 μmol pyridoxine hydrochloride, 1.2 μmol thiamine, 26.6 μmol glycine, 1.37 μmol glutamine, 1.8 μmol myo-inositol, 30 g of sucrose, 8 g of agar, 5.37 μmol α-naphtylacetic acid (NAA) and 0.5 μmol benzylaminopurine (BAP). Subcultivation was carried out every three weeks. Fourteen days before the bioassay, the callus tissue was transferred to the media without 6-benzylaminopurine (BAP). Biological activity was determined from the increase in fresh callus weight after four weeks of cultivation. Five replicates were prepared for each cytokinin concentration and the entire test was repeated twice. From the obtained data, the concentration with highest activity was selected for each compound tested. Relative activity of the compound at this concentration was calculated (Tab. 6). […] The cytokinins to be tested were dissolved in dimethylsulfoxide (DMSO) and the solution brought up to 10^−3M with distilled water. This stock was further diluted in the respective media used for the biotest to concentrations ranging from 10^−8M to 10^−4M.

SMILES | IC50 (promyelocytic HL-60) | IC50 (mouse fibroblasts NIH3T3) | IC50 [1] | IC50 [2] | IC50 [3] | IC50 (HOS) | IC50 [4] | Concentration with highest activity [5] | Activity (%) [10^−4 mol · l^−1 BAP = 100%] [5] | Concentration with highest activity [6] | Activity (%) [10^−5 mol · l^−1 BAP = 100%] [6] | Activity (%) [10^−5 mol · l^−1 BAP = 100%] [7] | Concentration with highest activity [7]
COc1ccc(O)c(CNc2ncnc3c2ncn3[C@@H]2O[C@H](CO)[C@@H](O)[C@H]2O)c1 [2-hydroxy-5-methoxybenzylamino, 6-(2-hydroxy-5-methoxybenzylamino)purine riboside] | 0.1 µM | > 167 µM | 0.2 µM | 15.4 µM | 21 µM | > 167 µM | 102 µM |  |  |  |  |  | 
OC[C@H]1O[C@@H](n2cnc3c(NCc4ccc(F)c(Cl)c4)ncnc32)[C@H](O)[C@@H]1O [3-chloro-4-fluorobenzylamino, 6-(3-chloro-4-fluorobenzylamino)purine riboside] | 3.5 µM | > 167 µM | 3.4 µM | 4.1 µM | > 167 µM | > 167 µM |  | 10^−4 mol · l^−1 | 156 ± 10% | 10^−4 mol · l^−1 | 82 ± 5% | 87 ± 4% | 10^−6 mol · l^−1
OC[C@H]1O[C@@H](n2cnc3c(NCc4ccc(Br)cc4)ncnc32)[C@H](O)[C@@H]1O [4-bromobenzylamino, 6-(4-bromobenzylamino)purine riboside] | 47.4 µM | > 167 µM | 20.6 µM | 68.2 µM | > 167 µM | > 167 µM |  | 10^−4 mol · l^−1 | 76 ± 11% | 10^−5 mol · l^−1 | 30 ± 8% | 15 ± 11% | 10^−6 mol · l^−1
OC[C@H]1O[C@@H](n2cnc3c(NCc4ccc(O)cc4)ncnc32)[C@H](O)[C@@H]1O [4-hydroxybenzylamino, 6-(4-hydroxybenzylamino)purine riboside] | 9.5 µM | > 167 µM | 39.7 µM | > 167 µM | > 167 µM | > 167 µM | > 167 µM |  |  |  |  |  | 
Cc1ccc(CNc2ncnc3c2ncn3[C@@H]2O[C@H](CO)[C@@H](O)[C@H]2O)cc1 [4-methylbenzylamino, 6-(4-methylbenzylamino)purine riboside] | > 167 µM | > 167 µM | > 167 µM | > 167 µM | > 167 µM | > 167 µM |  | 10^−4 mol · l^−1 | 55 ± 5% | 10^−5 mol · l^−1 | 32 ± 7% | 95 ± 6% | 10^−6 mol · l^−1
OC[C@H]1O[C@@H](n2cnc3c(NCc4cccc(Cl)c4O)nc(Cl)nc32)[C@H](O)[C@@H]1O [R2 = Cl, 2-hydroxy-3-chlorobenzylamino] | 0.1 µM | > 167 µM | 0.2 µM | 10 µM | 14 µM | > 167 µM | 118 µM |  |  |  |  |  | 
COc1cccc(CNc2nc(Cl)nc3c2ncn3[C@@H]2O[C@H](CO)[C@@H](O)[C@H]2O)c1O [R2 = Cl, 2-hydroxy-3-methoxybenzylamino] | 0.1 µM | > 167 µM | 0.2 µM | 17 µM | 23 µM | > 167 µM | 140 µM |  |  |  |  |  | 
OC[C@H]1O[C@@H](n2cnc3c(NCc4ccccc4O)nc(Cl)nc32)[C@H](O)[C@@H]1O [R2 = Cl, 2-hydroxybenzylamino] | 0.38 µM | 35.1 µM | 0.56 µM | 75 µM | 10.5 µM | 2.5 µM | > 167 µM |  |  |  |  |  | 
COc1ccccc1CNc1nc(Cl)nc2c1ncn2C1OC(CO)C(O)C1O (stereo not drawn) [R2 = Cl, 2-methoxyxybenzylamino] | 1.5 µM | > 167 µM | 2.7 µM | 14.5 µM | > 167 µM | 15.3 µM | > 167 µM |  |  |  |  |  | 
OC[C@H]1O[C@@H](n2cnc3c(NCc4cccc(F)c4)nc(Cl)nc32)[C@H](O)[C@@H]1O [R2 = Cl, 3-fluorobenzylamino] | 0.9 µM | > 167 µM | 3 µM | 5.3 µM | 16 µM | > 167 µM | 16 µM |  |  |  |  |  | 
OC[C@H]1O[C@@H](n2cnc3c(NCc4cccc(O)c4)nc(Cl)nc32)[C@H](O)[C@@H]1O [R2 = Cl, 3-hydroxybenzylamino] | 15.9 µM | > 167 µM | 47.8 µM | > 167 µM | > 167 µM | > 167 µM | > 167 µM |  |  |  |  |  | 
COc1cccc(CNc2nc(Cl)nc3c2ncn3[C@@H]2O[C@H](CO)[C@@H](O)[C@H]2O)c1 [R2 = Cl, 3-methoxyxybenzylamino, 2-chloro-6-(3-methoxybenzylamino)purine riboside] | 4.1 µM | > 167 µM | 6.5 µM | > 167 µM | > 167 µM | > 167 µM | > 167 µM |  |  |  |  |  | 
